Reference: patent US6608076B1, “Camptothecin derivatives and polymeric conjugates thereof” (priority 2002, dated 2003)

Test system: human mammary carcinoma (MX-1)
Test: Efficacy against subcutaneous human mammary carcinoma (MX-1) xenograft in nude mice
Format: in vivo
From the text: General Procedures. All reactions were run under an atmosphere of dry nitrogen or argon. Commercial reagents were used without further purification. All PEG compounds were 40 kDa and were dried under vacuum or by azeotropic distillation from toluene prior to use. ^13C NMR spectra were obtained at 75.46 MHz using a Varian Mercurye® 300 NMR spectrometer and deuterated chloroform as the solvent unless otherwise specified. Chemical shifts (δ) are reported in parts per million (ppm) downfield from tetramethylsilane (TMS). All PEG conjugated compounds were dissolved in saline for injection prior to in vivo drug treatments and were given as their camptothecin equivalents (absolute amount of camptothecin given). HPLC method. The reaction mixtures and the purity of intermediates and final products were monitored by a Beckman Coulter System Gold® HPLC instrument employing a ZOBAXO® 300 SB C-8 reversed phase column (150×4.6 mm) or a Phenomenex Jupiter® 300A C18 reversed phase column (150×4.6 mm) with a multiwavelength UV detector, using a gradient of 30-90% of acetonitrile in 0.5% trifluoroacetic acid (TFA) at a flow rate of 1 mL/min.
The efficacy of open-form camptothecin analogs against a subcutaneous human mammary carcinoma (MX-1) grown in nude mice was determined as follows. Following at least one week of acclimation, tumors were established by implanting small tumor fragments from donor mice into a single subcutaneous site, on the left axillary flank region of nude mice. The tumor implantation site was observed twice weekly and measured once palpable. The tumor volume for each mouse was determined by measuring two dimensions with calipers and calculated using the formula: tumor volume=(length×width^2). When tumors reached the average volume of approximately 75 mm^3, the mice were divided into their experimental groups, which consists of untreated controls, PEG40,000-ala-20(S)-Camptothecin, compound 8, and compound 18.
The mice were sorted to evenly distribute tumor size, grouped into 4 to 5 mice/cage, and ear punched for permanent identification. Drugs were dosed intravenously via the tail vein as a single dose (Qd1). Mouse weight and tumor sizes were measured at the beginning of study and twice weekly through week 5. The overall growth of tumors was calculated as the mean tumor volume at one week following the end of the treatment. A percent treatment over control (T/C) value was also calculated when the control group's median tumor size reached approximately 800-1100 mm^3 and again at one week following treatment. The T/C value in percent is a non-quantitative indication of anti-tumor effectiveness.

Question: What does the source list for PEG40,000-ala-20(S)-Camptothecin?
Answer: Difference in antitumor activity between the three compounds (at equivalent doses): no significant (P<0.05) difference in the antitumor activity; Tumor Regression at Day 25 (#/grp) (i.v. Qd1 (24 mg/kg/dose), Day 25): 5/5; T/C (%) At 1000 mm^3 (i.v. Qd1 (24 mg/kg/dose), median tumor volume treated vs control when control median reached approx. 1000 mm^3, T/C < 42% considered significant): 1.4%; Tumor volume as compared to control mice (i.v. single dose, statistical comparison, P<0.05): significantly (P<0.05) smaller tumor volumes; Tumor Volume (mean ± sem) Day 21 (intravenous single dose Qd1 (24 mg/kg/dose, camptothecin equivalents), established tumors ~75 mm^3, Day 21): 15 ± 5 mm^3
